Results from patent US20240024490A1, “BIFUNCTIONAL MOLECULES FOR SELECTIVE MODIFICATION OF TARGET SUBSTRATES” (The Broad Institute, Inc., priority 2021, published 2024).
Read-outs that look alike come from different tables or passages of the source.

Legend:
ABL myristoyl domain = settings: cited from earlier work
Recombinant PKCζ = molecular target: T1, Recombinant PKCζ (Homo sapiens, UniProt Q05513); settings: cited from earlier work
T1 sequence (Q05513 1-592): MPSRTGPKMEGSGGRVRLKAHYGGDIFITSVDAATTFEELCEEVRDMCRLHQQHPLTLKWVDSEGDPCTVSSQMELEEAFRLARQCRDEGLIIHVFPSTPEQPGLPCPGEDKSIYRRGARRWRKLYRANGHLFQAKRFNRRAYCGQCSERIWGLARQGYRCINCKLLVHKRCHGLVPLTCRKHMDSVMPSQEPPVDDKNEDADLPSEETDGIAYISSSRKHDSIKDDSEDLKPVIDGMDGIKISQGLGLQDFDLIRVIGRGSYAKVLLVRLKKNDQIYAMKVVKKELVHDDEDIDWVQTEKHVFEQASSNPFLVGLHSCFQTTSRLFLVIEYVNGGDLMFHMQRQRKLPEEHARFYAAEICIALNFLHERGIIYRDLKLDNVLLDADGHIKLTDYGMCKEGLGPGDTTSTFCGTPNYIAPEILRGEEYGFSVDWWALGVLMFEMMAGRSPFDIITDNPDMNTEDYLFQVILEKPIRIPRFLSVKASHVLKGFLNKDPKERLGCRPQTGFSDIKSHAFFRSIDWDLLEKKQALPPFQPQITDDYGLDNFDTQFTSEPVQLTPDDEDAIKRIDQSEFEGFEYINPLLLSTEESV

PDK1 [1] = molecular target: T2, PDK1 (Homo sapiens, UniProt O15530); settings: cited from earlier work
T2 sequence (O15530 1-556): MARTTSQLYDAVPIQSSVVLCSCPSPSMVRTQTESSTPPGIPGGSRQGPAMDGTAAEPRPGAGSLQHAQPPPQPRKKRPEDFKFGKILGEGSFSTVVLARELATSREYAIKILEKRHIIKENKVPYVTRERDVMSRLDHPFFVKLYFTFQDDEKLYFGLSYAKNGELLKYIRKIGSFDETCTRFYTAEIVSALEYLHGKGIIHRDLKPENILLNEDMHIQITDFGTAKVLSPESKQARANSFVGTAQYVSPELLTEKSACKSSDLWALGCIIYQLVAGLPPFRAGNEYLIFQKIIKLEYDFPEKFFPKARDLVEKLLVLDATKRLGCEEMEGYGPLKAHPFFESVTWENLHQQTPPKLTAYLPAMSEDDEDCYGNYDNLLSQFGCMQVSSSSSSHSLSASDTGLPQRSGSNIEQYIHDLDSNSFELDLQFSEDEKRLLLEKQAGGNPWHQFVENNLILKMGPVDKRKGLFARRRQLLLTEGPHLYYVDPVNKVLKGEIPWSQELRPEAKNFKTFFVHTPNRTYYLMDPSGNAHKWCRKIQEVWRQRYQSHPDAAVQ

JNK 1 = JNK 1 (Homo sapiens, UniProt P45983); settings: cited from earlier work
Sequence of JNK 1 (P45983 whole entry, species assumed): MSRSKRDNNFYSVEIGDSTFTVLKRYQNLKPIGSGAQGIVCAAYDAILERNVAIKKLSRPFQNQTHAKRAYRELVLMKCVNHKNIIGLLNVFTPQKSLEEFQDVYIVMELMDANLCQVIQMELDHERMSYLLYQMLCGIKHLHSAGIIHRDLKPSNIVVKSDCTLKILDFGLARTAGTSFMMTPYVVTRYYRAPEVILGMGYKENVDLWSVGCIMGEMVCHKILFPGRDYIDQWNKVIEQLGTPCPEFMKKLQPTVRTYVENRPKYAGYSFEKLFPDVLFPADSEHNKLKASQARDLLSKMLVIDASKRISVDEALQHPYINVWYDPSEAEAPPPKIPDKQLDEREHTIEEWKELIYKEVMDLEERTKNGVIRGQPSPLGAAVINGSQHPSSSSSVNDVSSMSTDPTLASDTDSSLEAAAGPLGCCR

JNK 2 = JNK 2 (Homo sapiens, UniProt P45984); settings: cited from earlier work
Sequence of JNK 2 (P45984 whole entry, species assumed): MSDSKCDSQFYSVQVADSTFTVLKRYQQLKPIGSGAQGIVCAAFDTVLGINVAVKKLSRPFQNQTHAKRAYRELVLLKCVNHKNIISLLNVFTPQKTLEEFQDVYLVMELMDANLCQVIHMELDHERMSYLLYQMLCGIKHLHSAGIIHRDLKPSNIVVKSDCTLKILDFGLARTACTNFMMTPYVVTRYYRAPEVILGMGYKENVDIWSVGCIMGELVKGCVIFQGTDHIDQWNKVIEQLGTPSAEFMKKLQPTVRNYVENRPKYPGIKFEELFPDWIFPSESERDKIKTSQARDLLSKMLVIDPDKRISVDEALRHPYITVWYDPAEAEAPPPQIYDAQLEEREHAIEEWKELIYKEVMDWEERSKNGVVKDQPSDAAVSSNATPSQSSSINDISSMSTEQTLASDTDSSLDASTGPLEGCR

AMPK = settings: cited from earlier work
Z-138 cells [2] = assay: Z-138 cell viability; format: cell-based
Text: Since PKC phosphorylates membrane-associated BTK with the C1 domain buried in the lipid bilayer, [5] Applicants aimed to characterize PHICS-mediated BTK phosphorylation by PKC in vitro in the absence of lipid bilayer. […] PEG4 linker, and benzolactam (FIG. 73A). […] One of the modified residues (T410) is located close to the ATP binding pocket, whereas other sites (S310, 5323, and 5378) are on the loops of the SH2 domain in BTK. […] To explore the biological consequences of these neo-phosphorylations, Applicants adopted a genetic approach where the phosphorylated Ser/Thr residues were mutated to aspartic acid, a phosphomimetic, and alanine as a control. […] [8] […] The following studies will be focused on further optimization of the anti-cancer potency of BTK and BCR-ABL targeting PKC-based PHICS molecules as well as on the detailed investigation of their mechanism of action.
Applicants assessed the viability of Z-138 cells after introduction of small molecules at various concentrations, see FIGS. 67-71. […]
Applicants found a non-linear dependency on Z-138 cell viability as a function of linker length and composition.

Z-138 cells [3] = assay: Z-138 cell viability; format: cell-based; settings: FIGS. 67-71
Aurora A = molecular target: T3, Aurora A (Homo sapiens, UniProt O14965); settings: cited from earlier work; for Ki: read-out: Calculated Ki
T3 sequence (O14965 1-403): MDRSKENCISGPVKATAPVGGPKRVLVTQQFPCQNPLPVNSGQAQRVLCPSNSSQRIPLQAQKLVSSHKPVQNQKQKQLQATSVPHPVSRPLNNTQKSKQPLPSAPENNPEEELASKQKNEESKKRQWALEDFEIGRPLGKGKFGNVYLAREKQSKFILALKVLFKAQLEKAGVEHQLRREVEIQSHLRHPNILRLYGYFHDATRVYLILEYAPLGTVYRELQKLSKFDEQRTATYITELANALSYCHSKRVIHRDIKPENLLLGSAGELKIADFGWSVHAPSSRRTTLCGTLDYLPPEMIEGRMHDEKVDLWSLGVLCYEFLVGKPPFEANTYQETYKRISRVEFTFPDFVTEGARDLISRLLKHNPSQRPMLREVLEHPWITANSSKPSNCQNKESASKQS

PDK1 [4] = molecular target: T2, PDK1; settings: ITC; cited from earlier work
[5] = molecular target: β2 subunit-containing AMPK (Homo sapiens, UniProt O43741+Q13131); settings: cited from earlier work
Sequence of β2 subunit-containing AMPK (O43741 whole entry): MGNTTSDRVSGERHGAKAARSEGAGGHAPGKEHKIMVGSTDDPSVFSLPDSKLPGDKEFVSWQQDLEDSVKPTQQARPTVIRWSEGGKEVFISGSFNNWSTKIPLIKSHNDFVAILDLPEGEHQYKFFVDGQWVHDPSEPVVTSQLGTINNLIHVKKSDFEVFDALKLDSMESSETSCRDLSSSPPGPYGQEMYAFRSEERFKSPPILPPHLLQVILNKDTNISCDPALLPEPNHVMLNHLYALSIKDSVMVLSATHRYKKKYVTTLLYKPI
Sequence of β2 subunit-containing AMPK (Q13131 whole entry): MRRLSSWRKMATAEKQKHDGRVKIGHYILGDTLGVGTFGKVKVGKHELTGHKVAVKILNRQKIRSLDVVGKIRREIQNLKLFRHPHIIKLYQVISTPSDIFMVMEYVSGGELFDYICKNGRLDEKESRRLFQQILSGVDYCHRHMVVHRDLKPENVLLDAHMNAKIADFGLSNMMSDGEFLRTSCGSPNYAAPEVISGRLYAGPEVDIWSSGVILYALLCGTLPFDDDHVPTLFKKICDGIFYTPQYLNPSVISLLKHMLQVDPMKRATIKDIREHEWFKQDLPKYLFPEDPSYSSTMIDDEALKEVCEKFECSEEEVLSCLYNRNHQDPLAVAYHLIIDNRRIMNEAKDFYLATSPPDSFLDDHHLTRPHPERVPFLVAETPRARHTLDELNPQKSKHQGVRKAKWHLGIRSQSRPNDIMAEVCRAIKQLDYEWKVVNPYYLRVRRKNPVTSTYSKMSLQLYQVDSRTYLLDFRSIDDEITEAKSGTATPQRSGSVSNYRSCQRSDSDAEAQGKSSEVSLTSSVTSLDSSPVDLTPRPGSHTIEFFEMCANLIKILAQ
Sequence of β2 subunit-containing AMPK (P54619 whole entry partner): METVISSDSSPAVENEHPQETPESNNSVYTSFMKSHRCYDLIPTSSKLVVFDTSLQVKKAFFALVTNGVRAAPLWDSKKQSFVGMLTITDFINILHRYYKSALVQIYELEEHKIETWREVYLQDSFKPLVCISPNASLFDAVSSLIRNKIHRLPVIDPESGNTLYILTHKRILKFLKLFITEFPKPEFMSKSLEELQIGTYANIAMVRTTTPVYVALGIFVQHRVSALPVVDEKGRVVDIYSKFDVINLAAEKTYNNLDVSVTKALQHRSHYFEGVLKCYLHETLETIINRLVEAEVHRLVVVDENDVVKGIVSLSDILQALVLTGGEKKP

[6] = molecular target: β1 subunit-containing AMPK (Homo sapiens, UniProt Q13131+Q9Y478); settings: cited from earlier work
Sequence of β1 subunit-containing AMPK (Q9Y478 whole entry): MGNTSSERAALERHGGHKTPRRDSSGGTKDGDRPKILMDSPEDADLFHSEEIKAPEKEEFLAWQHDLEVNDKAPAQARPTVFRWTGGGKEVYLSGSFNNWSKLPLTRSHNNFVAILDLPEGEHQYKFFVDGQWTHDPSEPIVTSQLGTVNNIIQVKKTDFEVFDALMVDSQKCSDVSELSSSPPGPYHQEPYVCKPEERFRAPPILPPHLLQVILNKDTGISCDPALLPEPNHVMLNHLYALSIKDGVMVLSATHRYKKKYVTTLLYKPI
Sequence of β1 subunit-containing AMPK (Q13131 whole entry): as the sequence (Q13131 whole entry) above
Sequence of β1 subunit-containing AMPK (P54619 whole entry partner): as the sequence (P54619 whole entry partner) above

[7] = cited from earlier work
K562 cells = assay: K562 cell viability; format: cell-based
HSP90 = settings: cell free assay; cited from earlier work
FGFR = assay: FGFR-FKBP phosphorylation by ABL and FGFR1/mTOR/G-CSF signaling; format: cell-based
Text: Applicants expanded the scope of ABL targets by phosphorylating a receptor tyrosine kinase, FGFR by fusing an FKBP domain to the cytosolic portion of FGFR (FIG. 37).

HER2-Cter-FKBP = assay: Phosphorylation of HER2-Cter-FKBP by ABL in transfected HEK293 cells (pY1221 HER2-specific antibody); format: cell-based; settings: 15 minutes of compound treatment, FIG. 74C
HER2-Cter-FKBP construct = assay: Phosphorylation of HER2-FKBP construct by ABL in HEK293 cells; format: cell-based; settings: 15 minutes, pY1221 HER2-specific antibody

CCCN(Cc1ccc(-c2ccccc2-c2nn[nH]n2)cc1)c1nc2ccccc2s1 [compound 2]
pIC50 (ABL myristoyl domain): 6.5

CC(C)(C)C1=NN(c2ccc(F)cc2F)C(c2ccc(O)cc2)C1 (stereo not shown) [1o]
cell-free assay, % inhibition at 62.5 μM (Recombinant PKCζ): 68.0%

CCc1ccc(CC/C(=C\C(=O)O)c2ccccc2)cc1 [10E]
AC50 (PDK1 [1]): n.e.

CNc1ncc2c(n1)N(C1CCC(O)C1)C(=O)N(c1cc(NC(=O)c3ccc(CN4CCN(C)CC4)c(C(F)(F)F)c3)ccc1C)C2 (stereo not shown) [compound 9]
IC50 (JNK 1): 0.97 µM | IC50 (JNK 2): 1.3 µM

N#Cc1c(O)c2c(-c3ccc(-c4ccccc4O)cc3)csc2[nH]c1=O [A769662]
pEC50 (AMPK): 6.0

Cc1ccc(N2N=C(C(C)(C)C)CC2c2ccc(O)cc2)c(C)c1 (stereo not shown) [1p]
cell-free assay, % inhibition at 62.5 μM (Recombinant PKCζ): 59.9%

O=C(O)/C=C(\CCc1ccc(F)cc1)c1ccccc1 [4E]
AC50 (PDK1 [1]): n.e.

C=CC(=O)N1CCC[C@@H](n2nc(-c3ccc(Oc4ccccc4)cc3)c3c(N)ncnc32)C1 [Ibrutinib]
effect on Z-138 cell viability (Z-138 cells [2]): did not have any significant effect | effect on Z-138 cell viability (Z-138 cells [3]): did not have any significant effect

CC(C)(C)C1=NN(c2ccc(Br)cc2)C(c2ccc(O)cc2)C1 (stereo not shown) [1c]
cell-free assay, % inhibition at 62.5 μM (Recombinant PKCζ): 93.2% | IC50 (Recombinant PKCζ; read-out: cell-free assay, IC50 ± SD): 11.4 ± 1.25 µM

CCc1ccc(CC/C(=C/C(=O)O)c2ccccc2)cc1 [10Z]
AC50 (PDK1 [1]; read-out: AC50): > 50 µM

CC(C)c1ccc(N2N=C(C(C)(C)C)CC2c2ccc(O)cc2)cc1 (stereo not shown) [1f]
cell-free assay, % inhibition at 62.5 μM (Recombinant PKCζ): 54.9%

CC(C)(C)C1=NN(c2ccccc2F)C(c2ccc(O)cc2)C1 (stereo not shown) [1m]
cell-free assay, % inhibition at 62.5 μM (Recombinant PKCζ): 57.6%

O=C(O)c1cc(-c2cccc(C(F)(F)F)c2)nc2ccccc12 [compound 34]
IC50 (Aurora A): 26.5 µM | Ki (Aurora A): 5.7 µM

O=C(Nc1nnc(SCc2ccc([N+](=O)[O-])cc2)s1)c1ccccc1Cl [6E]
AC50 (PDK1 [1]): n.e.

O=C(O)c1cc(-c2cccc(F)c2)nc2ccccc12 [compound 26]
IC50 (Aurora A): 75.9 µM | Ki (Aurora A): 16.5 µM

O=C(O)/C=C(/CCc1ccc2ccccc2c1)c1ccccc1 [12Z]
AC50 (PDK1 [1]; read-out: AC50): 6 µM | TΔS (PDK1 [4]): 1.96 kcal/mol | ΔG (PDK1 [4]): -6.67 kcal/mol | ΔH (PDK1 [4]): -4.56 kcal/mol | ΔH/ΔG (PDK1 [4]): 68.3%

MT47-100
pKi as an allosteric inhibitor [5]: 4.6 | pKi as an activator [6]: 5.4

O=C(NOCC(O)CO)c1ccc(F)c(F)c1Nc1ccc(I)cc1F (racemic) [Compound 33]
Sol (pH 6.5) [7]: 147 μg/mL

O=C(O)/C=C(/CCc1c[nH]c2ccccc12)c1ccccc1 [13Z]
AC50 (PDK1 [1]; read-out: AC50): 7.6 µM | TΔS (PDK1 [4]): 2.60 kcal/mol | ΔG (PDK1 [4]): -6.73 kcal/mol | ΔH (PDK1 [4]): -4.09 kcal/mol | ΔH/ΔG (PDK1 [4]): 60.8%

O=C(O)/C=C(/CCc1ccc(C(F)(F)F)cc1)c1ccccc1 [6Z]
AC50 (PDK1 [1]; read-out: AC50): 7.1 µM | TΔS (PDK1 [4]): 4.79 kcal/mol | ΔG (PDK1 [4]): -6.73 kcal/mol | ΔH (PDK1 [4]): -1.84 kcal/mol | ΔH/ΔG (PDK1 [4]): 26.5%

O=C(O)/C=C(/CCc1ccc(Br)cc1)c1ccccc1 [5Z]
AC50 (PDK1 [1]; read-out: AC50): 9.8 µM | TΔS (PDK1 [4]): 3.20 kcal/mol | ΔG (PDK1 [4]): -6.32 kcal/mol | ΔH (PDK1 [4]): -3.07 kcal/mol | ΔH/ΔG (PDK1 [4]): 46.6%

CCCN(Cc1ccc(-c2ccccc2-c2nn[nH]n2)cc1)c1nc2ccccc2s1 [Cpd2]
EC50 (K562 cells): ~1 µM

CC(C)(C)C1=NN(c2ccccc2Cl)C(c2ccc(O)cc2)C1 (stereo not shown) [1l]
cell-free assay, % inhibition at 62.5 μM (Recombinant PKCζ): 57.1%

Alvespimycin
IC50 (HSP90): 0.062 µM

CC[C@H](C(=O)N1CCCC[C@H]1C(=O)O[C@@H](CCc1ccc(OC)c(OC)c1)c1cccc(OCC(=O)NCCOCCOCCOCCOCCC(=O)NC2=NN(c3ccc(Cl)c(Cl)c3)CC2)c1)c1cc(OC)c(OC)c(OC)c1 [VS1043]
FGFR phosphorylation / FGFR1/mTOR/G-CSF signaling (FGFR): activates FGFR1/mTOR/G-CSF signaling in a dose dependent manner | phosphorylation of HER2-Cter-FKBP construct (HER2-Cter-FKBP): significant phosphorylation | phosphorylation of HER2-Cter-FKBP construct (HER2-Cter-FKBP construct): significant phosphorylation

CNCc1ccc(COc2ccc3c(c2)N(C)C(C(C)C)C(=O)NC(CO)C3)cc1 (stereo not shown) [benzolactam]
effect on Z-138 cell viability (Z-138 cells [2]): did not have any significant effect | effect on Z-138 cell viability (Z-138 cells [3]): did not have any significant effect

CC(C)(C)C1=NN(c2ccc(C(F)(F)F)cc2)C(c2ccc(O)cc2)C1 (stereo not shown) [1d]
cell-free assay, % inhibition at 62.5 μM (Recombinant PKCζ): 94.2%

CCCCN(Cc1ccc(-c2ccccc2-c2nn[nH]n2)cc1)c1nc(C)cc(C)n1 [Cpd3]
EC50 (K562 cells): ~0.31 µM

O=C(O)/C=C(/CCc1cccc(Cl)c1)c1ccccc1 [3Z]
AC50 (PDK1 [1]; read-out: AC50): 9.5 µM

CC(C)(C)C1=NN(c2cccc(F)c2)C(c2ccc(O)cc2)C1 (stereo not shown) [1i]
cell-free assay, % inhibition at 62.5 μM (Recombinant PKCζ): 98.1%

CC(C)(C)C1=NN(c2ccc(C(=O)O)cc2)C(c2ccc(O)cc2)C1 (stereo not shown) [1g]
cell-free assay, % inhibition at 62.5 μM (Recombinant PKCζ): 47.9%

O=C(NOCC(O)CO)c1ccc(F)c(F)c1Nc1ccc(I)cc1F (stereo not shown) [Compound 35]
Sol (pH 6.5) [7]: 255, μg/mL

CCOc1nc(C(=O)NCC2CCN(Cc3sc(-c4ccccc4)nc3C)CC2)cc(N)c1C#N [compound 6]
IC50 (JNK 1): < 0.0018 µM | IC50 (JNK 2): < 0.0026 µM

O=C(NOC[C@H](O)CO)c1ccc(F)c(F)c1Nc1ccc(I)cc1F [Mirdametinib]
Sol (pH 6.5) [7]: 190 μg/mL

Cc1ccc(CC/C(=C\C(=O)O)c2ccccc2)c(Cl)c1 [8E]
AC50 (PDK1 [1]): n.e.

O=C1NC(=O)C(c2cn(-c3ccccc3)nc2-c2ccc(F)cc2)N1 (stereo not shown) [Cpd1]
EC50 (K562 cells; unit inferred): ≥ 10 µM | EC50 (K562 cells; unit inferred, listed as Cpdl): > 10 µM

CC(C)(C)C1=NN(c2ccc(Cl)cc2Cl)C(c2ccc(O)cc2)C1 (stereo not shown) [1n]
cell-free assay, % inhibition at 62.5 μM (Recombinant PKCζ): 71.0%
